Source: article PMC8319832, “Fine-Tuning of Alkaline Residues on the Hydrophilic Face Provides a Non-toxic Cationic α-Helical Antimicrobial Peptide Against Antibiotic-Resistant ESKAPE Pathogens” (Frontiers in Microbiology, 2021)
In brackets after ≈: the same amount, converted by molar mass. Where a SMILES comes first, the peptide text is derived from it.

Columns and labels:
[1] = tested on: S. aureus ATCC29213; assay: MIC, broth dilution; type: cell-based, Staphylococcus aureus
Description: (§1) All experiments were repeated at least three times.
(§2) To study the influence of physiological ions on the antimicrobial activities of the peptides, The MICs of the peptides were also determined against the standard bacterial strains cultured in MHB containing various salts at their physiological concentrations (150 mM NaCl, 4.5 mM KCl, 1 mM MgCl2, 2 mM CaCl2, 6 μM NH4HCO3, and 4 μM FeCl3) ([Ma et al., 2016]).

[2] = tested on: E. coli ATCC25922; assay: MIC, broth dilution; type: cell-based, Escherichia coli
[3] = tested on: E. faecalis 901; assay: MIC, broth dilution; type: cell-based; details: CLSI broth dilution, MHB, 37°C, 20 h, OD630, at least three repeats; clinical isolate
Excerpt: as §1

[4] = tested on: S. epidermidis 6943; assay: MIC, broth dilution; type: cell-based; details: CLSI broth dilution, MHB, 37°C, 20 h, OD630, at least three repeats; clinical isolate, MRSE
Excerpt: as §1

[5] = tested on: S. epidermidis 888; assay: MIC, broth dilution; type: cell-based; details: CLSI broth dilution, MHB, 37°C, 20 h, OD630, at least three repeats; clinical isolate
Excerpt: as §1

[6] = tested on: S. epidermidis 9092; assay: MIC, broth dilution; type: cell-based; details: CLSI broth dilution, MHB, 37°C, 20 h, OD630, at least three repeats; clinical isolate, MRSE
Excerpt: as §1

[7] = tested on: E. faecalis ATCC 29212; assay: MIC, broth dilution; type: cell-based
Description: as §1, §2

[8] = tested on: E. faecium 898; assay: MIC, broth dilution; type: cell-based, Enterococcus faecium; details: CLSI broth dilution, MHB, 37°C, 20 h, OD630, at least three repeats; clinical isolate
Excerpt: as §1

[9] = tested on: E. coli 2678; assay: MIC, broth dilution; type: cell-based, Escherichia coli; details: CLSI broth dilution, MHB, 37°C, 20 h, OD630, at least three repeats; clinical isolate, ESBL
Excerpt: as §1

[10] = tested on: E. coli 2687; assay: MIC, broth dilution; type: cell-based, Escherichia coli; details: CLSI broth dilution, MHB, 37°C, 20 h, OD630, at least three repeats; clinical isolate, ESBL
Excerpt: as §1

[11] = tested on: E. coli ATCC35218; assay: MIC, broth dilution; type: cell-based, Escherichia coli; details: CLSI broth dilution, MHB, 37°C, 20 h, OD630, at least three repeats; standard strain
Excerpt: as §1

[12] = tested on: P. aeruginosa ATCC 27853; assay: MIC, broth dilution; type: cell-based, Pseudomonas aeruginosa
Description: as §1, §2

[13] = tested on: A. baumannii 13012; assay: MIC, broth dilution; type: cell-based, Acinetobacter baumannii; details: CLSI broth dilution, MHB, 37°C, 20 h, OD630, at least three repeats; clinical isolate, CRE, MDR
Excerpt: as §1

[14] = tested on: A. baumannii 13079; assay: MIC, broth dilution; type: cell-based, Acinetobacter baumannii; details: CLSI broth dilution, MHB, 37°C, 20 h, OD630, at least three repeats; clinical isolate, CRE, MDR
Excerpt: as §1

[15] = tested on: A. baumannii 9068; assay: MIC, broth dilution; type: cell-based, Acinetobacter baumannii; details: CLSI broth dilution, MHB, 37°C, 20 h, OD630, at least three repeats; clinical isolate, CRE, MDR
Excerpt: as §1

[16] = tested on: A. baumannii 906; assay: MIC, broth dilution; type: cell-based, Acinetobacter baumannii; details: CLSI broth dilution, MHB, 37°C, 20 h, OD630, at least three repeats; clinical isolate, CRE, MDR
Excerpt: as §1

[17] = tested on: K. pneumoniae ATCC 700603; assay: MIC, broth dilution; type: cell-based, Klebsiella pneumoniae
Description: as §1, §2

[18] = tested on: human red blood cells (hRBCs); assay: Hemolytic activity determination; type: cell-based; details: peptide 100 μg ml^–1; hRBCs in 0.9% sodium chloride, 37°C, 1 h, OD540, 1% Triton X-100 = 100%; three independent experiments
Description: Fresh human red blood cells (hRBCs) were collected in a sterile borosilicate glass tube covered with sodium citrate as the anticoagulating agent. […] Two-fold dilutions of the peptides were prepared in 0.9% sodium chloride to 100 μl and mixed with equal volumn of hRBC suspension to final peptide concentrations ranging from 12.5 to 200 μg ml^–1. After co-incubation at 37°C for 1 h, the samples were centrifuged (2,000 × g, 4°C, 20 min), and the supernatant (100 μl) was taken for optical density (OD540) measurements (Asample). The hRBCs assayed with 0.9% sodium chloride (Ablank) or 1% Triton X-100 (Apositive) were applied as 0% and 100% hemolysis, respectively. Three independent experiments were performed and the percent hemolysis was calculated according to the following equation ([Yin et al., 2012]; [Li et al., 2016]):
Hemolysis(%)=100*(Asample-Ablank)/(Apositive-Ablank)

[19] = tested on: healthy ICR mice; assay: In vivo systemic toxicity; set-up: species or system mouse
Description: Healthy ICR mice (male, 6–8 weeks old, ∼30 g) were used to determine the in vivo systemic toxicity of the peptide ([Chen et al., 2013]). The mice were randomly divided into six groups (n = 10). Five cohorts were intraperitoneally injected with a single dose of 10, 20, 40, 80, and 160 mg kg^–1 body weight of the peptide dissolved in PBS. The mice injected with PBS were used as control. The survival of mice was inspected for 7 days. All surviving mice were euthanized at the end of the experiments.
For histopathological examination, each group of ICR mice (n = 6) was injected intraperitoneally with PBS or with a single dose of 40 mg kg^–1 body weight of the peptide. At 1, 2, and 7-day post-injection, the mice were euthanized, and the liver, kidney and spleen were collected and fixed with 4% formaldehyde for haematoxylin and eosin staining.

[20] = tested on: ESBL-producing E. coli, CRE- and MDR P. aeruginosa, CRE- and MDR A. baumannii; assay: MIC, summary over resistant gram-negative strains; type: cell-based; details: summary of Table 4
Excerpt: as §1

[21] = salt sensitivity test, MHB, control without addition of salt ions
[22] = CLSI broth dilution, MHB, 37°C, 20 h, OD630, at least three repeats, standard strain

## CC[C@H](C)[C@H](NC(=O)[C@H](CCCCN)NC(=O)[C@H](CCCCN)NC(=O)[C@@H](NC(=O)[C@@H](N)Cc1ccccc1)[C@@H](C)CC)C(=O)N[C@@H](C)C(=O)N[C@@H](CCCCN)C(=O)N[C@@H](CC(C)C)C(=O)N[C@@H](CC(C)C)C(=O)N[C@@H](CCCCN)C(=O)N[C@@H](CCCCN)C(=O)N[C@H](C(=O)N[C@@H](Cc1ccccc1)C(N)=O)[C@@H](C)CC [BmKn2-7K] (H-FIKKIAKLLKKIF-NH2)
[1]; MHB with 4 μM FeCl3
  MIC: 5 µg/mL (≈ 3.15 µM)
[1]; MHB with 6 μM NH4HCO3
  MIC: 5 µg/mL (≈ 3.15 µM)
[1]; MHB with 1 mM MgCl2
  MIC: 5 µg/mL (≈ 3.15 µM)
[1]; MHB with 2 mM CaCl2
  MIC: 5 µg/mL (≈ 3.15 µM)
[1]; MHB with 4.5 mM KCl
  MIC: 5 µg/mL (≈ 3.15 µM)
[1]; MHB with 150 mM NaCl
  MIC: 5 µg/mL (≈ 3.15 µM)
[1]; [21]
  MIC: 5 µg/mL
[2]; CLSI broth dilution, MHB, 6.25 × 10^5 cfu per ml, 37°C, 20 h, OD630, at least three repeats
  MIC: 5 µg/mL (≈ 3.15 µM)
[2]; MHB with 4 μM FeCl3
  MIC: 20 µg/mL (≈ 12.6 µM)
[2]; MHB with 6 μM NH4HCO3
  MIC: 20 µg/mL (≈ 12.6 µM)
[3]
  MIC: 10 µg/mL (≈ 6.29 µM)
[4]
  MIC: 2.5 µg/mL (≈ 1.57 µM)
[5]
  MIC: 2.5 µg/mL (≈ 1.57 µM)
[6]
  MIC: 2.5 µg/mL (≈ 1.57 µM)
[7]; [22]
  MIC: 5 µg/mL (≈ 3.15 µM)
[7]; MHB with 4 μM FeCl3
  MIC: 20 µg/mL (≈ 12.6 µM)
[7]; MHB with 6 μM NH4HCO3
  MIC: 20 µg/mL (≈ 12.6 µM)
[7]; MHB with 1 mM MgCl2
  MIC: 20 µg/mL (≈ 12.6 µM)
[7]; MHB with 2 mM CaCl2
  MIC: 10 µg/mL (≈ 6.29 µM)
[7]; MHB with 4.5 mM KCl
  MIC: 20 µg/mL (≈ 12.6 µM)
[7]; MHB with 150 mM NaCl
  MIC: 10 µg/mL (≈ 6.29 µM)
[7]; [21]
  MIC: 5 µg/mL
[8]
  MIC: 5 µg/mL (≈ 3.15 µM)
[9]
  MIC: 10 µg/mL (≈ 6.29 µM)
[10]
  MIC: 10 µg/mL (≈ 6.29 µM)
[11]
  MIC: 10 µg/mL (≈ 6.29 µM)
[12]; [22]
  MIC: 5 µg/mL (≈ 3.15 µM)
[12]; MHB with 4 μM FeCl3
  MIC: 20 µg/mL (≈ 12.6 µM)
[12]; MHB with 6 μM NH4HCO3
  MIC: 20 µg/mL (≈ 12.6 µM)
[13]
  MIC: 2.5 µg/mL (≈ 1.57 µM)
[14]
  MIC: 2.5 µg/mL (≈ 1.57 µM)
[15]
  MIC: 2.5 µg/mL (≈ 1.57 µM)
[16]
  MIC: 2.5 µg/mL (≈ 1.57 µM)
[17]; [22]
  MIC: 10 µg/mL (≈ 6.29 µM)
[17]; MHB with 4 μM FeCl3
  MIC: 10 µg/mL (≈ 6.29 µM)
[17]; MHB with 6 μM NH4HCO3
  MIC: 10 µg/mL (≈ 6.29 µM)
[17]; MHB with 1 mM MgCl2
  MIC: 10 µg/mL (≈ 6.29 µM)
[17]; MHB with 2 mM CaCl2
  MIC: 10 µg/mL (≈ 6.29 µM)
[17]; MHB with 4.5 mM KCl
  MIC: 10 µg/mL (≈ 6.29 µM)
[17]; MHB with 150 mM NaCl
  MIC: 5 µg/mL (≈ 3.15 µM)
[17]; [21]
  MIC: 10 µg/mL
[18]
  percent hRBC hemolysis: 12.2%
[19]; single intraperitoneal dose 40 mg kg^–1 body weight, 1, 2 and 7 days post-treatment, n = 6, haematoxylin-eosin
  histopathological examination of liver, spleen and kidney: no necrosis or drug-induced injury was observed
[19]; single intraperitoneal dose 80 mg kg^–1 body weight, n = 10
  mice surviving for 7 days: 60%
[19]; single intraperitoneal dose 160 mg kg^–1 body weight, n = 10
  survival of mice: died within 24 h
[19]; single intraperitoneal dose up to 40 mg kg^–1 body weight, n = 10 per cohort
  survival of mice for 7 days: all mice
[19]; single intraperitoneal injection, ICR mice, 7 days
  median lethal dose (LD50): exceeds 80 mg kg^–1 body weight
[20]
  MIC against ESBL E. coli, CRE/MDR P. aeruginosa, CRE/MDR A. baumannii: 2.5–10 μg ml^–1
